# Species on record: Rattus norvegicus
# Test: Open TG-GATES - Regimen: Single
# Type: toxicity, organism-based, Sprague-Dawley
# Parameters: regimen Single, gender Male, age 6 weeks
# Conditions: in vivo, po, 0 mg/kg, route gavage, dose level Control; for APTT / Bas / Eos / Fbg / Hb / Ht / Lym / MCH / MCHC / Mono / Neu / PT / Plat / RBC / Ret / WBC / MCV: tissue Blood; for KIDNEY_L / KIDNEY_R / KIDNEY_TOTAL: tissue Kidney; for LIVER: tissue Liver; for ALP / ALT / AST / BUN / CRE / Ca / Cl / DBIL / GLC / IP / K / LDH / Na / PL / RALB / TBIL / TC / TG / TP / gamma-GTP: tissue Plasma
compound,measurement,setting,value
CCOc1ccc(NC(C)=O)cc1 [PHENACETIN],TERMINAL_BW,3 h,210.2 g
same,APTT,3 h,17.4 s
same,Bas,3 h,0%
same,Eos,3 h,0.6%
same,Fbg,3 h,292 mg/dL
same,Hb,3 h,13.3 g/dL
same,Ht,3 h,40.2%
same,Lym,3 h,78.2%
same,MCH,3 h,20.7 pg
same,MCHC,3 h,33%
same,Mono,3 h,3%
same,Neu,3 h,17.8%
same,PT,3 h,13.7 s
same,Plat,3 h,114.8 x10_4/uL
same,RBC,3 h,641.4 x10_4/ul
same,Ret,3 h,8.1%
same,WBC,3 h,96.3 x10_2/uL
same,KIDNEY_L,3 h,0.9 g
same,KIDNEY_R,3 h,0.9 g
same,KIDNEY_TOTAL,3 h,1.8 g
same,LIVER,3 h,9.1 g
same,ALP,3 h,1765 IU/L
same,ALT,3 h,39.6 IU/L
same,AST,3 h,74.4 IU/L
same,BUN,3 h,11.6 mg/dL
same,CRE,3 h,0.2 mg/dL
same,Ca,3 h,11.1 mg/dL
same,Cl,3 h,105.4 meq/L
same,DBIL,3 h,0 mg/dL
same,GLC,3 h,169 mg/dL
same,IP,3 h,8.8 mg/dL
same,K,3 h,4.2 meq/L
same,LDH,3 h,115.4 IU/L
same,Na,3 h,142.2 meq/L
same,PL,3 h,153.4 mg/dL
same,RALB,3 h,2.5 g/dL
same,TBIL,3 h,0.05 mg/dL
same,TC,3 h,87.8 mg/dL
same,TG,3 h,53.2 mg/dL
same,TP,3 h,5.4 g/dL
same,gamma-GTP,3 h,1.8 IU/L
same,TERMINAL_BW,6 h,211 g
same,APTT,6 h,18.2 s
same,Bas,6 h,0.4%
same,Eos,6 h,1%
same,Fbg,6 h,290.8 mg/dL
same,Hb,6 h,13.6 g/dL
same,Ht,6 h,40.8%
same,Lym,6 h,76.2%
same,MCH,6 h,20.7 pg
same,MCHC,6 h,33.4%
same,MCV,6 h,62.2 fL
same,Mono,6 h,2.6%
same,Neu,6 h,19.4%
same,PT,6 h,14.1 s
same,Plat,6 h,119.9 x10_4/uL
same,RBC,6 h,656.6 x10_4/ul
same,Ret,6 h,7.6%
same,WBC,6 h,104.2 x10_2/uL
same,KIDNEY_L,6 h,0.9 g
same,KIDNEY_R,6 h,1 g
same,KIDNEY_TOTAL,6 h,1.9 g
same,LIVER,6 h,8.7 g
same,ALP,6 h,1471.4 IU/L
same,AST,6 h,74.4 IU/L
same,BUN,6 h,9.6 mg/dL
same,CRE,6 h,0.2 mg/dL
same,Ca,6 h,11 mg/dL
same,Cl,6 h,106 meq/L
same,DBIL,6 h,0 mg/dL
same,GLC,6 h,171.6 mg/dL
same,IP,6 h,9.3 mg/dL
same,K,6 h,4.1 meq/L
same,LDH,6 h,73.8 IU/L
same,Na,6 h,144 meq/L
same,PL,6 h,142 mg/dL
same,RALB,6 h,2.5 g/dL
same,TBIL,6 h,0.052 mg/dL
same,TC,6 h,78.8 mg/dL
same,TG,6 h,50 mg/dL
same,TP,6 h,5.4 g/dL
same,gamma-GTP,6 h,1.4 IU/L
same,TERMINAL_BW,9 h,210.5 g
same,APTT,9 h,17.7 s
same,Bas,9 h,0.2%
same,Eos,9 h,0.8%
same,Fbg,9 h,302.8 mg/dL
same,Hb,9 h,13.2 g/dL
same,Ht,9 h,39.7%
same,Lym,9 h,77.4%
same,MCH,9 h,21.6 pg
same,MCHC,9 h,33.3%
same,MCV,9 h,64.9 fL
same,Mono,9 h,2.6%
same,PT,9 h,13.7 s
same,Plat,9 h,116.6 x10_4/uL
same,RBC,9 h,611.4 x10_4/ul
same,Ret,9 h,8.6%
same,WBC,9 h,81.1 x10_2/uL
same,KIDNEY_L,9 h,0.9 g
same,KIDNEY_R,9 h,0.9 g
same,KIDNEY_TOTAL,9 h,1.9 g
same,LIVER,9 h,8.4 g
same,ALP,9 h,1519.6 IU/L
same,ALT,9 h,36.8 IU/L
same,AST,9 h,75.4 IU/L
same,BUN,9 h,9.2 mg/dL
same,CRE,9 h,0.2 mg/dL
same,Ca,9 h,10.9 mg/dL
same,DBIL,9 h,0.002 mg/dL
same,GLC,9 h,163.6 mg/dL
same,IP,9 h,9.8 mg/dL
same,K,9 h,4 meq/L
same,LDH,9 h,75.8 IU/L
same,Na,9 h,143.4 meq/L
same,PL,9 h,145.6 mg/dL
same,RALB,9 h,2.5 g/dL
same,TBIL,9 h,0.066 mg/dL
same,TC,9 h,81.6 mg/dL
same,TG,9 h,44.2 mg/dL
same,TP,9 h,5.4 g/dL
same,gamma-GTP,9 h,1.2 IU/L
same,TERMINAL_BW,24 h,226.9 g
same,APTT,24 h,17.2 s
same,Bas,24 h,0%
same,Eos,24 h,1%
same,Fbg,24 h,296.2 mg/dL
same,Hb,24 h,13.3 g/dL
same,Ht,24 h,40.1%
same,Lym,24 h,82.4%
same,MCH,24 h,21.1 pg
same,MCHC,24 h,33%
same,MCV,24 h,63.7 fL
same,Mono,24 h,2.2%
same,Neu,24 h,13.6%
same,PT,24 h,13.6 s
same,Plat,24 h,120.9 x10_4/uL
same,RBC,24 h,630.4 x10_4/ul
same,Ret,24 h,7.8%
same,WBC,24 h,100.3 x10_2/uL
same,KIDNEY_L,24 h,1 g
same,KIDNEY_R,24 h,1 g
same,KIDNEY_TOTAL,24 h,1.9 g
same,LIVER,24 h,10.7 g
same,ALP,24 h,1883.2 IU/L
same,ALT,24 h,37.2 IU/L
same,AST,24 h,66.2 IU/L
same,BUN,24 h,15.2 mg/dL
same,CRE,24 h,0.2 mg/dL
same,Ca,24 h,11.1 mg/dL
same,Cl,24 h,104.4 meq/L
same,DBIL,24 h,0.008 mg/dL
same,GLC,24 h,179 mg/dL
same,IP,24 h,7.9 mg/dL
same,K,24 h,4.2 meq/L
same,LDH,24 h,106.8 IU/L
same,PL,24 h,161.8 mg/dL
same,RALB,24 h,2.6 g/dL
same,TBIL,24 h,0.038 mg/dL
same,TC,24 h,81.8 mg/dL
same,TG,24 h,122.2 mg/dL
same,TP,24 h,5.7 g/dL
